Experimental data reported in publication PMC10897015, “Investigation of anti-nociceptive, anti-inflammatory potential and ADMET studies of pure compounds isolated from Isodon rugosus Wall. ex Benth” (Frontiers in Pharmacology, 2024).
Several values for one entry are separate records, joined by “and”; a condition that tells them apart may be missing. Identical values can stand only once. Marks after values point to notes of the source that are not given here.

Columns and labels:
Type in all cases: in vivo
Swiss albino mice [1] = experiment: Acetic acid-induced writhing test; settings: for Writhes, individual values: single animals, listed as Comp 2; for % analgesic activity (writhing inhibition) / Mean writhes: oral
Description: An anti-nociceptive assessment was performed on Swiss albino mice of both sexes, sourced from the National Institute of Health, Islamabad, Pakistan. […] Mice of either sex were divided into different groups, with five mice in each group. The test samples were carefully administered orally, with doses of 250, 500, 1000, and 2000 mg/kg.
I. rugosus was evaluated for its analgesic potential through an acetic acid-induced writhing test. Oral administration of the test samples was carried out using specified doses. After 30 min of interval, 10 ml/kg of acetic acid (0.6%) was injected into the mice. Group I served as the control and received 0.5% Tween-80 (3 ml/kg), group II received diclofenac sodium (10 mg/kg), and groups III and IV received test compounds. The count of writhes was recorded between 5 and 30 min, following the i/p injection of acetic acid ([Franzotti et al., 2000]).

Swiss albino mice [2] = experiment: Hot plate test with opioid receptor involvement; settings: for Reaction time on hot plate, individual values: single animals; for Reaction time on the hot plate: compounds 50 mg/kg, Mor 5 mg/kg, Nal 1 mg/kg
mice = experiment: Carrageenan-induced paw edema; settings: for % edema volume inhibition (mean): aspirin 10 mg/kg; for Paw edema percent inhibition, individual values / Paw edema, individual values: single animals
Description: The animals under study were divided into different groups. Prior to the experiment, the animals had only access to water. […] Additionally, the isolated compounds being tested were given 30 min before injecting 0.05 ml of 1% carrageenan into the sub-plantar region of the paw. To measure the volume changes in the paw, a digital plethysmometer was employed. Readings were taken before and after the carrageenan injection at hourly intervals over a total period of 5 h.

Compound: O=C(CCc1ccc(O)cc1)c1c(O)cc(O)cc1O [Compound 2, 2-4-4-6-tetrahydroxy-dihydrochalcone]
- Writhes, individual values (Swiss albino mice [1]; 10mg): 59.2 and 60.82 and 60.05
- Writhes, individual values (Swiss albino mice [1]; 20mg): 55.1 and 54.26 and 56.7
- Writhes, individual values (Swiss albino mice [1]; 25mg): 49.8 and 50.8 and 49.1
- Writhes, individual values (Swiss albino mice [1]; 50mg): 41.02 and 43.67 and 40.12
- % analgesic activity (writhing inhibition) (Swiss albino mice [1]; dose 10 mg/kg): 1.86^ns %
- % analgesic activity (writhing inhibition) (Swiss albino mice [1]; dose 10 mg/kg, listed as compound 2, 10 mg/kg): 01.86%
- Mean writhes (Swiss albino mice [1]; dose 10 mg/kg, writhes counted 5-30 min after acetic acid, 10 mg/kg): 60.02 ± 0.90
- Mean writhes (Swiss albino mice [1]; dose 10 mg/kg, writhes counted 5-30 min after acetic acid, listed as Comp 2, 10 mg/kg): 60.0233
- % analgesic activity (writhing inhibition) (Swiss albino mice [1]; dose 20 mg/kg): 9.49^ns %
- Mean writhes (Swiss albino mice [1]; dose 20 mg/kg): 55.35 ± 0.87
- Mean writhes (Swiss albino mice [1]; dose 20 mg/kg, listed as Comp 2, 20 mg/kg): 55.3533
- % analgesic activity (writhing inhibition) (Swiss albino mice [1]; dose 25 mg/kg): 18.41^* %
- Mean writhes (Swiss albino mice [1]; dose 25 mg/kg): 49.90 ± 0.20
- Mean writhes (Swiss albino mice [1]; dose 25 mg/kg, listed as Comp 2, 25 mg/kg): 49.9
- % analgesic activity (writhing inhibition) (Swiss albino mice [1]; dose 50 mg/kg): 31.98^*** %
- Mean writhes (Swiss albino mice [1]; dose 50 mg/kg): 41.60 ± 1.24
- Mean writhes (Swiss albino mice [1]; dose 50 mg/kg, listed as Comp 2, 50 mg/kg): 41.6033
- Reaction time on hot plate, individual values (Swiss albino mice [2]; at 15, listed as Comp-2): 3.02 and 3.9 and 4.6
- Reaction time on hot plate, individual values (Swiss albino mice [2]; at 30, listed as Comp-2): 4.1 and 4.17 and 5.3
- Reaction time on hot plate, individual values (Swiss albino mice [2]; at 45, listed as Comp-2): 3.12 and 2.58 and 4.1
- Reaction time on hot plate, individual values (Swiss albino mice [2]; at 60, listed as Comp-2): 2.3
- Reaction time on hot plate, individual values (Swiss albino mice [2]; at 90, listed as Comp-2): 2.06 and 2.49 and 3.99
- Reaction time on the hot plate (Swiss albino mice [2]; at 15 min): 03.84 ± 0.03 s
- Reaction time on the hot plate (Swiss albino mice [2]; at 15 min, listed as Comp-2): 3.84 s
- Reaction time on the hot plate (Swiss albino mice [2]; at 30 min): 04.52 ± 0.09 s
- Reaction time on the hot plate (Swiss albino mice [2]; at 30 min, listed as Comp-2): 4.523 s
- Reaction time on the hot plate (Swiss albino mice [2]; at 45 min): 3.27 ± 0.48 s
- Reaction time on the hot plate (Swiss albino mice [2]; at 45 min, listed as Comp-2): 3.267 s
- Reaction time on the hot plate (Swiss albino mice [2]; at 60 min): 3.18 ± 0.34 s
- Reaction time on the hot plate (Swiss albino mice [2]; at 60 min, listed as Comp-2): 3.183 s
- Reaction time on the hot plate (Swiss albino mice [2]; at 90 min): 2.85 ± 0.29 s
- Reaction time on the hot plate (Swiss albino mice [2]; at 90 min, listed as Comp-2): 2.847 s
- % edema volume inhibition (mean) (mice; 1st hour after carrageenan, listed as Comp 2): 36.72%
- % edema volume inhibition (mean) (mice; 2nd hour after carrageenan): 37.45%
- % edema volume inhibition (mean) (mice; 3rd hour after carrageenan): 39.6788%
- % edema volume inhibition (mean) (mice; 4th hour after carrageenan): 32.922%
- % edema volume inhibition (mean) (mice; 5th hour after carrageenan): 29.246%
- Paw edema percent inhibition, individual values (mice; hour 1, listed as Comp 2): 42.03% and 38.64% and 36.29% and 31.91% and 34.73%
- Paw edema, individual values (mice; hour 1, listed as Comp 2): 0.44 and 0.47 and 0.488 and 0.521 and 0.5
- Paw edema percent inhibition, individual values (mice; hour 2, listed as Comp 2): 38.57% and 37.62% and 36.26% and 39.35%
- Paw edema, individual values (mice; hour 2, listed as Comp 2): 0.454 and 0.461 and 0.471 and 0.45 and 0.457
- Paw edema percent inhibition, individual values (mice; hour 3, listed as Comp 2): 40.08% and 38.48% and 38.75% and 40.75% and 40.334%
- Paw edema, individual values (mice; hour 3, listed as Comp 2): 0.45 and 0.462 and 0.46 and 0.445 and 0.449
- Paw edema percent inhibition, individual values (mice; hour 4, listed as Comp 2): 32.11% and 31.19% and 31.85% and 32.63% and 36.83%
- Paw edema, individual values (mice; hour 4, listed as Comp 2): 0.518 and 0.525 and 0.52 and 0.514 and 0.482
- Paw edema percent inhibition, individual values (mice; hour 5, listed as Comp 2): 29.96% and 29.27% and 30.23% and 28.18% and 28.59%
- Paw edema, individual values (mice; hour 5, listed as Comp 2): 0.512 and 0.517 and 0.51 and 0.525 and 0.522
